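How tested: cells in 96-well plates exposed to compound for 48 hours at five concentrations. The concentration for 50% growth inhibition is given as GI50.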 Calls of active or inactive are those of the source. No stated cut-off is given here; in the data, active = GI50 up to about 1.1 µM and inactive = higher.
What was measured:
Assay in all cases: NCI anticancer screen, dose series, 48 h
786-0 = system: 786-0
A498 = system: A498
A549 = system: A549
ACHN = system: ACHN
BT-549 = system: BT-549
CAKI-1 = system: CAKI-1
CCRF-CEM = system: CCRF-CEM
COLO 205 = system: COLO 205
EKVX = system: EKVX
HCC 2998 = system: HCC 2998
HCT-116 = system: HCT-116
HCT-15 = system: HCT-15
HL-60 = system: HL-60
HT-29 = system: HT-29
Hs-578T = system: Hs-578T
IGROV-1 = system: IGROV-1
K562 = system: K562
LOX IMVI = system: LOX IMVI
M14 = system: M14
MDA-MB-435 = system: MDA-MB-435
MDA-N = system: MDA-N
MOLT-4 = system: MOLT-4
NCI-H23 = system: NCI-H23
NCI/ADR-RES = system: NCI/ADR-RES
OVCAR-5 = system: OVCAR-5
OVCAR-8 = system: OVCAR-8
PC-3 = system: PC-3
RPMI-8226 = system: RPMI-8226
RXF 393 = system: RXF 393
SF-268 = system: SF-268
SF-539 = system: SF-539
SK-MEL-28 = system: SK-MEL-28
SK-MEL-2 = system: SK-MEL-2
SK-MEL-5 = system: SK-MEL-5
SK-OV-3 = system: SK-OV-3
SN12C = system: SN12C
SNB-19 = system: SNB-19
SNB-75 = system: SNB-75
SR = system: SR
SW-620 = system: SW-620
T47D = system: T47D
TK-10 = system: TK-10
U-251 = system: U-251
UACC-257 = system: UACC-257
UO-31 = system: UO-31
DU-145 = system: DU-145
KM12 = system: KM12
NCI-H226 = system: NCI-H226
NCI-H460 = system: NCI-H460
NCI-H522 = system: NCI-H522
OVCAR-3 = system: OVCAR-3
OVCAR-4 = system: OVCAR-4
SF-295 = system: SF-295
HOP-92 = system: HOP-92
MCF7 = system: MCF7
MDA-MB-231 = system: MDA-MB-231
Malme-3M = system: Malme-3M
UACC-62 = system: UACC-62

CCC1(COC(NC(=O)c2ccccc2)(C(F)(F)F)C(F)(F)F)COC1
GI50 (786-0): > 100 µM (inactive) | GI50 (A498): > 100 µM (inactive) | GI50 (A549): > 100 µM (inactive) | GI50 (ACHN): 65.6 µM (inactive) | GI50 (BT-549): > 100 µM (inactive) | GI50 (CAKI-1): > 100 µM (inactive) | GI50 (CCRF-CEM): > 100 µM (inactive) | GI50 (COLO 205): > 100 µM (inactive) | GI50 (EKVX): > 100 µM (inactive) | GI50 (HCC 2998): > 100 µM (inactive) | GI50 (HCT-116): > 100 µM (inactive) | GI50 (HCT-15): > 100 µM | GI50 (HL-60): > 100 µM (inactive) | GI50 (HT-29): > 100 µM (inactive) | GI50 (Hs-578T): > 100 µM (inactive) | GI50 (IGROV-1): > 100 µM (inactive) | GI50 (K562): > 100 µM (inactive) | GI50 (LOX IMVI): > 100 µM (inactive) | GI50 (M14): > 100 µM (inactive) | GI50 (MDA-MB-435): > 100 µM (inactive) | GI50 (MDA-N): > 100 µM (inactive) | GI50 (MOLT-4): 52.4 µM (inactive) | GI50 (NCI-H23): > 100 µM (inactive) | GI50 (NCI/ADR-RES): > 100 µM (inactive) | GI50 (OVCAR-5): > 100 µM (inactive) | GI50 (OVCAR-8): > 100 µM (inactive) | GI50 (PC-3): > 100 µM (inactive) | GI50 (RPMI-8226): > 100 µM (inactive) | GI50 (RXF 393): > 100 µM (inactive) | GI50 (SF-268): > 100 µM (inactive) | GI50 (SF-539): > 100 µM (inactive) | GI50 (SK-MEL-28): > 100 µM (inactive) | GI50 (SK-MEL-2): > 100 µM (inactive) | GI50 (SK-MEL-5): > 100 µM (inactive) | GI50 (SK-OV-3): > 100 µM (inactive) | GI50 (SN12C): > 100 µM (inactive) | GI50 (SNB-19): > 100 µM (inactive) | GI50 (SNB-75): > 100 µM (inactive) | GI50 (SR): > 100 µM (inactive) | GI50 (SW-620): > 100 µM (inactive) | GI50 (T47D): > 100 µM (inactive) | GI50 (TK-10): > 100 µM (inactive) | GI50 (U-251): > 100 µM (inactive) | GI50 (UACC-257): > 100 µM (inactive) | GI50 (UO-31): > 100 µM (inactive)

COc1cc(/C=N/Nc2nnc3c4ccccc4c4ncccc4c3n2)cc(OC)c1OC
GI50 (786-0): 5.83 µM (inactive) | GI50 (A549): 2.79 µM (inactive) | GI50 (ACHN): 5.85 µM (inactive) | GI50 (BT-549): 6.22 µM (inactive) | GI50 (CCRF-CEM): 2.63 µM (inactive) | GI50 (DU-145): 3.31 µM (inactive) | GI50 (EKVX): 9.82 µM (inactive) | GI50 (HL-60): 3.62 µM (inactive) | GI50 (HT-29): 2.02 µM (inactive) | GI50 (Hs-578T): 4.74 µM (inactive) | GI50 (IGROV-1): 1.04 µM (active) | GI50 (K562): 3.17 µM (inactive) | GI50 (KM12): 9.29 µM (inactive) | GI50 (M14): 8.51 µM (inactive) | GI50 (MDA-MB-435): 5.12 µM (inactive) | GI50 (MDA-N): 1.61 µM (inactive) | GI50 (MOLT-4): 2.9 µM (inactive) | GI50 (NCI-H226): 3.01 µM (inactive) | GI50 (NCI-H23): 2.57 µM (inactive) | GI50 (NCI-H460): 0.728 µM (active) | GI50 (NCI-H522): 2.47 µM (inactive) | GI50 (OVCAR-3): 3.53 µM (inactive) | GI50 (OVCAR-4): 6.46 µM (inactive) | GI50 (OVCAR-5): 5.13 µM (inactive) | GI50 (OVCAR-8): 2.23 µM (inactive) | GI50 (RXF 393): 4.72 µM (inactive) | GI50 (SF-268): 6.58 µM (inactive) | GI50 (SF-295): 3.49 µM (inactive) | GI50 (SF-539): 3.71 µM (inactive) | GI50 (SK-MEL-5): 4.31 µM (inactive) | GI50 (SNB-19): 6.71 µM (inactive) | GI50 (SNB-75): 3.82 µM (inactive) | GI50 (SR): 3.37 µM (inactive) | GI50 (T47D): 1.21 µM (inactive) | GI50 (TK-10): 4.28 µM (inactive) | GI50 (U-251): 4.21 µM (inactive) | GI50 (UACC-257): 1.97 µM (inactive) | GI50 (UO-31): 3.39 µM (inactive)

CC(C#N)Nc1ccc(Oc2ccc(C(C)(C)c3ccc(Oc4ccc(NC(C)C#N)cc4)cc3)cc2)cc1 (stereo not given)
GI50 (786-0): > 100 µM (inactive) | GI50 (A498): > 100 µM (inactive) | GI50 (A549): > 100 µM (inactive) | GI50 (ACHN): > 100 µM (inactive) | GI50 (BT-549): > 100 µM (inactive) | GI50 (CAKI-1): > 100 µM (inactive) | GI50 (COLO 205): > 100 µM (inactive) | GI50 (EKVX): > 100 µM (inactive) | GI50 (HCC 2998): 22.3 µM (inactive) | GI50 (HCT-116): 30.7 µM (inactive) | GI50 (HCT-15): > 100 µM | GI50 (HOP-92): 31.4 µM (inactive) | GI50 (HT-29): > 100 µM (inactive) | GI50 (Hs-578T): 18 µM (inactive) | GI50 (IGROV-1): > 100 µM (inactive) | GI50 (K562): > 100 µM (inactive) | GI50 (KM12): > 100 µM (inactive) | GI50 (LOX IMVI): > 100 µM (inactive) | GI50 (M14): > 100 µM (inactive) | GI50 (MCF7): 6.25 µM (inactive) | GI50 (MDA-MB-231): > 100 µM (inactive) | GI50 (MDA-MB-435): > 100 µM (inactive) | GI50 (MDA-N): > 100 µM (inactive) | GI50 (MOLT-4): 16.5 µM (inactive) | GI50 (Malme-3M): > 100 µM (inactive) | GI50 (NCI-H226): > 100 µM (inactive) | GI50 (NCI-H23): 40.9 µM (inactive) | GI50 (NCI-H460): > 100 µM (inactive) | GI50 (NCI/ADR-RES): > 100 µM (inactive) | GI50 (OVCAR-3): > 100 µM (inactive) | GI50 (OVCAR-4): > 100 µM (inactive) | GI50 (OVCAR-5): > 100 µM (inactive) | GI50 (OVCAR-8): > 100 µM (inactive) | GI50 (PC-3): 79.4 µM (inactive) | GI50 (RXF 393): > 100 µM (inactive) | GI50 (SF-268): 86.5 µM (inactive) | GI50 (SF-295): > 100 µM (inactive) | GI50 (SF-539): > 100 µM (inactive) | GI50 (SK-MEL-28): > 100 µM (inactive) | GI50 (SK-MEL-2): > 100 µM (inactive) | GI50 (SK-MEL-5): 50.6 µM (inactive) | GI50 (SK-OV-3): > 100 µM (inactive) | GI50 (SN12C): > 100 µM (inactive) | GI50 (SNB-19): > 100 µM (inactive) | GI50 (SNB-75): 92.5 µM (inactive) | GI50 (SW-620): > 100 µM (inactive) | GI50 (T47D): 0.409 µM (active) | GI50 (TK-10): > 100 µM (inactive) | GI50 (U-251): > 100 µM (inactive) | GI50 (UACC-257): 8.85 µM (inactive) | GI50 (UACC-62): > 100 µM (inactive) | GI50 (UO-31): 5.08 µM (inactive)

Reference: ChEMBL document CHEMBL1201862, “PubChem BioAssay data set” (2004)
